In BindingDB's records for patent US20250002452 (Icagen, 2025):

Target: Potassium voltage-gated channel subfamily KQT member 2 (Homo sapiens, UniProt O43526)
Test: SyncroPatch 384 (Nanion) High Throughput Electrophysiology Assay
Description: Solutions were of the following composition:Earle's balanced salt solution (in mM): 135 NaCl, 5.4 KCl, 5 Glucose, 2 CaCl2), 1 MgCl2, 5 HEPES, pH 7.4. Seal enhancer solution (in mM): 90 NaCl, 3 KCl, 35 CaCl2), 10 MgCl2, 10 HEPES, pH 7.4. Extracellular recording solution (in mM): 71 NaCl, 70 NMDG, 13 KCl, 5 Glucose, 2 CaCl2), 1 MgCl2, 10 HEPES, pH 7.4. Intracellular recording solution (in mM): 130 KF, 20 KCl, 4 EGTA, 10 HEPES, 2 EDTA, 0.01 Escin, pH 7.2.

Potassium voltage-gated channel subfamily KQT member 2, sequence (O43526 whole entry): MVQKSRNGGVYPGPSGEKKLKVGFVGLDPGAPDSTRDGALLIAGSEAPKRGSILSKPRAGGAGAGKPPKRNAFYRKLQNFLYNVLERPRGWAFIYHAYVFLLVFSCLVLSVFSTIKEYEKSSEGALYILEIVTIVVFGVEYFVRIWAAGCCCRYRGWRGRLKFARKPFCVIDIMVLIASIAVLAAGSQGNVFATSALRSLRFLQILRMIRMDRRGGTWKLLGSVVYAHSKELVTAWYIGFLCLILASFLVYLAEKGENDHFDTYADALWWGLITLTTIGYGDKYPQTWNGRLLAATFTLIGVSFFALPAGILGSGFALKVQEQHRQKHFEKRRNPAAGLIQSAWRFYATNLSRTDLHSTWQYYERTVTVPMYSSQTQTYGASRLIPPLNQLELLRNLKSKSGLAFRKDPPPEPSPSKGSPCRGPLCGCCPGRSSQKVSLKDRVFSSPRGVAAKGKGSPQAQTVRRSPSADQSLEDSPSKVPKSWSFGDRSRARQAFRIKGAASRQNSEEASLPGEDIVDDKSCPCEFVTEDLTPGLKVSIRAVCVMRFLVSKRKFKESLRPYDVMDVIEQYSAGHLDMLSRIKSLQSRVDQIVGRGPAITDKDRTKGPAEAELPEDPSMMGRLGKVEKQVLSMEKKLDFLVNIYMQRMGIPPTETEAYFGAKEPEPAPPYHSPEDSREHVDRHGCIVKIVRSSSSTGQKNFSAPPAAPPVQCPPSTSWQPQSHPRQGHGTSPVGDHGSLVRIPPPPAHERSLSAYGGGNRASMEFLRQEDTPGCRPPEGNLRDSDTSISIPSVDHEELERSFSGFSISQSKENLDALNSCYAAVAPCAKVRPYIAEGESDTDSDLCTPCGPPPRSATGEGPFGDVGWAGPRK

CC(NC(=O)NC12CC(F)(C1)C2)c1cccc(OC(F)F)c1 (stereo unspecified) [US20250002452, Example 38]
EC50: 180 nM
